Target: rat mGluR5 (Rattus norvegicus, UniProt P31424)
Experiment: cell-based
Protocol: The cells were loaded with a Ca2+-sensitive fluorescent dye (e.g., Fluo-4), and the plates were washed and placed in the FDSS instrument. Test compound was applied to cells 3 seconds after baseline readings were taken. Cells were incubated with the test compounds for 140 seconds and then stimulated with an EC20 concentration of an mGluR5 agonist (e.g., glutamate, 3,5-dihydroxyphenylglycine, or quisqualate); 60-80 seconds later an EC80 concentration of agonist was added and readings taken for an additional 40 seconds. Data were collected at 1 Hz. […] Concentration response curves were generated using a four parameter logistical equation.
The above described assay was operated in two modes. In the first mode (utilizing a triple add protocol), a range of concentrations of the present compounds were added to cells, followed by two single fixed concentrations of agonist (EC20 followed by EC80). If a compound acted as a potentiator, an EC50 value for potentiation of the EC20 response and a maximum extent of potentiation by the compound at this concentration of agonist was determined by non-linear curve fitting. If a compound acted as an antagonist, an IC50 value for antagonism of the EC80 response and a maximum extent of antagonism by the compound at this concentration of agonist was determined by non-linear curve fitting. In the second mode (utilizing a double add protocol), several fixed concentrations of the present compounds were added to various wells on a plate, followed by a range of concentrations of agonist for each concentration of present compound; the EC50 values for the agonist at each concentration of compound were determined by nonlinear curve fitting. A decrease in the EC50 value of the agonist with increasing concentrations of the present compounds (a leftward shift of the agonist concentration-response curve) is an indication of the degree of mGluR5 positive allosteric modulation at a given concentration of the present compound. An increase in the EC50 value of the agonist with increasing concentrations of the present compounds (a rightward shift of the agonist concentration response curve) is an indication of the degree of mGluR5 antagonism at a given concentration of the present compound. The second mode also indicates whether the present compounds also affect the maximum response to mGluR5 to agonists.
The mGluR5 activity was determined using the metabotropic glutamate receptor activity assays in human embryonic kidney cells as described herein, wherein the human embryonic kidney cells were transfected with rat mGluR5. The mGluR5 activity data for some compounds are shown as the average of at least three experiments with the standard error in these cases. If no error is indicated for the mGluR5 activity, the values given represent the results from a single experiment or the average of two experiments.

rat mGluR5, sequence (P31424 21-1203): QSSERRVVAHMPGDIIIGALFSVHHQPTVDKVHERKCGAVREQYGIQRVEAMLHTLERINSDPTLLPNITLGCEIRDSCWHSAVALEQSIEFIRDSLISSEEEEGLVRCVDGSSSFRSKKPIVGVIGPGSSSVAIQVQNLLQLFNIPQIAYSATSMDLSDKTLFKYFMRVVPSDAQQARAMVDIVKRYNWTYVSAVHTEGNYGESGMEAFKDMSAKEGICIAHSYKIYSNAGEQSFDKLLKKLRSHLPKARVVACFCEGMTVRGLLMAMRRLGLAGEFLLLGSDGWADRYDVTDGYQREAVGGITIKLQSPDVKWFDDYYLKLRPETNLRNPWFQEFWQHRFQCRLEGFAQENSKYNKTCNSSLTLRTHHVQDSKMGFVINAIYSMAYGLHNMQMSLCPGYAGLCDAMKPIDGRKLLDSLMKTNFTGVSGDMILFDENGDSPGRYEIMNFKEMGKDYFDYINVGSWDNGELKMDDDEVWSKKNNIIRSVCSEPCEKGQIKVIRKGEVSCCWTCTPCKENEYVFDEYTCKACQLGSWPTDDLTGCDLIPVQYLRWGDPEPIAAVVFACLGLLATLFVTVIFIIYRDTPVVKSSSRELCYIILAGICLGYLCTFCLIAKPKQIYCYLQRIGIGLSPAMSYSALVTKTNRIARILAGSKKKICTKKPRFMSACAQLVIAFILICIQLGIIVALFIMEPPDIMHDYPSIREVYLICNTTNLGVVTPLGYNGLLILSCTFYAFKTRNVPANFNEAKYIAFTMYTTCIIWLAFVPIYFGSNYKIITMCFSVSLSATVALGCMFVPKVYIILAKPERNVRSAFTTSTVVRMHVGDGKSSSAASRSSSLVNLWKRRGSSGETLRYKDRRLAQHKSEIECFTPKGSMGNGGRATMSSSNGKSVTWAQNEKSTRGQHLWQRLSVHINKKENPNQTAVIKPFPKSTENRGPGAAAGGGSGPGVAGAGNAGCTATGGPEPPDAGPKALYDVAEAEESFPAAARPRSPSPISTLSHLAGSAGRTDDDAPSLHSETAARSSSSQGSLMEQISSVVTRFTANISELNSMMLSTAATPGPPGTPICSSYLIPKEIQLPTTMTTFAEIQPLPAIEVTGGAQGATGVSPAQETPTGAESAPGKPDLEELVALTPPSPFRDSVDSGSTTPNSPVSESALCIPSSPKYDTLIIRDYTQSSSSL

Row | SMILES | IC50
1 | O=C(Nc1ccnc(Oc2cccnc2)c1)c1cccc(Cl)c1 | 1120 nM
2 | O=C(Nc1cncc(Oc2cccnc2)n1)c1cccc(Cl)c1 | 100 ± 12 nM
3 | Cc1cccc(C(=O)Nc2cncc(Oc3cccnc3)n2)c1 | 166 nM
4 | N#Cc1cccc(C(=O)Nc2cncc(Oc3cccnc3)n2)c1 | 460 nM
5 | Cc1cccc(C(=O)Nc2cncc(Oc3cccnc3)n2)n1 | > 30000 nM
6 | Cc1ccc(Oc2cncc(NC(=O)c3cccc(Cl)c3)n2)cn1 | > 10000 nM
7 | Cc1cccc(C(=O)Nc2cncc(Oc3ccc(C)nc3)n2)c1 | > 10000 nM
8 | Cc1ccc(Oc2cncc(NC(=O)c3cccc(C)n3)n2)cn1 | > 30000 nM
9 | Cc1cccc(C(=O)Nc2cccc(Oc3cncnc3)n2)c1 | 87 nM
10 | N#Cc1cccc(C(=O)Nc2cccc(Oc3cncnc3)n2)c1 | 271 nM
11 | Cc1cccc(C(=O)Nc2cccc(Oc3cncnc3)n2)n1 | > 30000 nM
12 | Cc1cccc(C(=O)Nc2cncc(Oc3ccc(C(F)(F)F)nc3)n2)c1 | > 10000 nM
13 | Cc1cccc(C(=O)Nc2cncc(Oc3ccc(C(F)(F)F)nc3)n2)n1 | > 30000 nM
14 | N#Cc1cccc(C(=O)Nc2cccc(Oc3cccnc3)n2)c1 | 266 nM
15 | Cc1cccc(C(=O)Nc2cccc(Oc3ccc(C(F)(F)F)nc3)n2)c1 | > 30000 nM
16 | N#Cc1cccc(C(=O)Nc2cccc(Oc3ccc(C(F)(F)F)nc3)n2)c1 | > 30000 nM
17 | Cc1cccc(C(=O)Nc2cccc(Oc3ccc(C(F)(F)F)nc3)n2)n1 | > 30000 nM
18 | O=C(Nc1ccnc(Oc2cccnc2)c1)c1cccc(Br)c1 | > 10000 nM
19 | N#Cc1cccc(C(=O)Nc2cncc(Oc3cccnc3)c2)c1 | 500 nM
20 | O=C(Nc1cncc(Oc2cncnc2)c1)c1cccc(F)n1 | > 30000 nM
21 | O=C(Nc1cncc(Oc2cncnc2)c1)c1cccc(F)c1 | > 10000 nM
22 | O=C(Nc1cncc(Oc2cncnc2)c1)c1cc(Cl)ccc1F | 927 nM
23 | O=C(Nc1cncc(Oc2cncnc2)c1)c1cccc(C(F)(F)F)n1 | > 30000 nM
24 | N#Cc1cncc(C(=O)Nc2cncc(Oc3cncnc3)c2)c1 | > 10000 nM
25 | O=C(Nc1cncc(Oc2cncnc2)c1)c1cscn1 | > 10000 nM
26 | N#Cc1csc(C(=O)Nc2cncc(Oc3cncnc3)c2)c1 | > 10000 nM
27 | CN(c1cncnc1)c1ccnc(NC(=O)c2cccc(C#N)c2)c1 | 2260 nM
28 | CN(c1cccnc1)c1ccnc(NC(=O)c2cccc(Br)c2)c1 | 123 nM
29 | CN(c1cncnc1)c1ccnc(NC(=O)c2cccc(Br)c2)c1 | 162 nM
30 | CCN(c1cncnc1)c1cncc(NC(=O)c2cccc(C#N)c2)c1 | 1790 nM

— US8569308B2, “Substituted heteroarylamine carboxamide analogs as mGluR5 negative allosteric modulators and methods of making and using the same” (Vanderbilt University, priority 2009, dated 2013)
